Laboratory results published in PubChem BioAssay (NCI).
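Exposure lasted 48 hours, with cells grown in 96-well plates and compounds tested at five concentrations. At the TGI there is no net growth.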

What was measured:
Experiment in all cases: DTP human tumour cell line panel, 48 h
RXF 393 renal = test system: RXF 393 renal
SN12C renal = test system: SN12C renal
SW-620 colon = test system: SW-620 colon
RPMI-8226 leukemia = test system: RPMI-8226 leukemia
SK-MEL-2 melanoma = test system: SK-MEL-2 melanoma
NCI-H23 lung = test system: NCI-H23 lung
KM12 colon = test system: KM12 colon
HS 578T breast = test system: HS 578T breast
SF-268 CNS = test system: SF-268 CNS
MDA-MB-435 = test system: MDA-MB-435
DU-145 prostate = test system: DU-145 prostate
COLO 205 colon = test system: COLO 205 colon
NCI-H226 lung = test system: NCI-H226 lung
SK-OV-3 ovarian = test system: SK-OV-3 ovarian
SK-MEL-5 melanoma = test system: SK-MEL-5 melanoma
OVCAR-3 ovarian = test system: OVCAR-3 ovarian
HCT-15 colon = test system: HCT-15 colon
SF-539 CNS = test system: SF-539 CNS
LOX IMVI melanoma = test system: LOX IMVI melanoma
BT-549 breast = test system: BT-549 breast

## CC(=O)c1c2c(cc3c1CC1(Cc4cc5c(cc4C1)C(=O)CCC5)C3)CCCC2 (stereo not given)
RXF 393 renal
  TGI: > 25.7 µM
SN12C renal
  TGI: > 100 µM
SW-620 colon
  TGI: > 100 µM
RPMI-8226 leukemia
  TGI: 13.2 µM
SK-MEL-2 melanoma
  TGI: 7.76 µM
NCI-H23 lung
  TGI: > 100 µM
KM12 colon
  TGI: 78.4 µM
HS 578T breast
  TGI: > 88.3 µM
SF-268 CNS
  TGI: 65 µM
MDA-MB-435
  TGI: 11.4 µM
DU-145 prostate
  TGI: > 100 µM
COLO 205 colon
  TGI: 21.7 µM
NCI-H226 lung
  TGI: 41.8 µM
SK-OV-3 ovarian
  TGI: > 100 µM
SK-MEL-5 melanoma
  TGI: 7.38 µM
OVCAR-3 ovarian
  TGI: 54.3 µM
HCT-15 colon
  TGI: 19.3 µM
SF-539 CNS
  TGI: 13.6 µM
LOX IMVI melanoma
  TGI: > 53.5 µM

## Clc1ccc(C(Cc2ccccc2)c2c(Cl)nc(N3CCNCC3)nc2Cl)cc1 (stereo not given)
SN12C renal
  TGI: 28.8 µM
SW-620 colon
  TGI: 27.7 µM
RPMI-8226 leukemia
  TGI: 33.7 µM
SK-MEL-2 melanoma
  TGI: 33.2 µM
NCI-H23 lung
  TGI: 36.8 µM
BT-549 breast
  TGI: 47.4 µM
KM12 colon
  TGI: 20.7 µM
HS 578T breast
  TGI: 32.6 µM
MDA-MB-435
  TGI: 32 µM
DU-145 prostate
  TGI: 27.6 µM
COLO 205 colon
  TGI: 3.11 µM
NCI-H226 lung
  TGI: 40.7 µM
SK-OV-3 ovarian
  TGI: 33.2 µM
SK-MEL-5 melanoma
  TGI: 27.8 µM
OVCAR-3 ovarian
  TGI: 28.2 µM
HCT-15 colon
  TGI: 14.5 µM
SF-539 CNS
  TGI: 28.8 µM
LOX IMVI melanoma
  TGI: 10.6 µM

## CC1(C)OC[C@H](COCOP2(=O)Oc3ccc4ccccc4c3-c3c(ccc4ccccc34)O2)O1
SN12C renal
  TGI: 30.1 µM
SW-620 colon
  TGI: 29.7 µM
NCI-H23 lung
  TGI: 29.6 µM
BT-549 breast
  TGI: 31 µM
KM12 colon
  TGI: 29.4 µM
HS 578T breast
  TGI: > 100 µM
SF-268 CNS
  TGI: 39.1 µM
MDA-MB-435
  TGI: 26.5 µM
DU-145 prostate
  TGI: 32.2 µM
NCI-H226 lung
  TGI: 37.3 µM
SK-OV-3 ovarian
  TGI: 73.3 µM
SK-MEL-5 melanoma
  TGI: 73 µM
OVCAR-3 ovarian
  TGI: 29.6 µM
HCT-15 colon
  TGI: 28.6 µM
SF-539 CNS
  TGI: 39.8 µM

## CC(C)=CCC/C(C)=C/Cc1c(O)c(C)cc2c1[nH]c1cc(O)ccc12
RXF 393 renal
  TGI: > 25 µM
SN12C renal
  TGI: > 25 µM
SW-620 colon
  TGI: > 25 µM
RPMI-8226 leukemia
  TGI: > 25 µM
SK-MEL-2 melanoma
  TGI: > 25 µM
KM12 colon
  TGI: > 25 µM
SF-268 CNS
  TGI: > 25 µM
COLO 205 colon
  TGI: > 25 µM
NCI-H226 lung
  TGI: > 25 µM
SK-OV-3 ovarian
  TGI: > 25 µM
SK-MEL-5 melanoma
  TGI: > 25 µM
OVCAR-3 ovarian
  TGI: > 25 µM
HCT-15 colon
  TGI: > 25 µM
SF-539 CNS
  TGI: > 25 µM
LOX IMVI melanoma
  TGI: > 25 µM

## C=C1C2CC3CCC2C(OC(=O)c2ccccc2C(=O)O)C13 (stereo not given)
RXF 393 renal
  TGI: > 100 µM
SN12C renal
  TGI: > 100 µM
SW-620 colon
  TGI: > 100 µM
SK-MEL-2 melanoma
  TGI: > 100 µM
NCI-H23 lung
  TGI: > 100 µM
KM12 colon
  TGI: > 100 µM
HS 578T breast
  TGI: > 100 µM
SF-268 CNS
  TGI: > 100 µM
MDA-MB-435
  TGI: > 100 µM
DU-145 prostate
  TGI: > 100 µM
COLO 205 colon
  TGI: > 100 µM
NCI-H226 lung
  TGI: > 100 µM
SK-OV-3 ovarian
  TGI: > 100 µM
SK-MEL-5 melanoma
  TGI: > 100 µM
OVCAR-3 ovarian
  TGI: > 100 µM
HCT-15 colon
  TGI: > 100 µM
SF-539 CNS
  TGI: > 100 µM
LOX IMVI melanoma
  TGI: > 100 µM

## NCCCC(N=Cc1nc(-c2ccccc2)oc1O)C(=O)O (stereo not given)
RXF 393 renal
  TGI: > 100 µM
SN12C renal
  TGI: > 100 µM
SW-620 colon
  TGI: > 100 µM
RPMI-8226 leukemia
  TGI: > 100 µM
SK-MEL-2 melanoma
  TGI: > 100 µM
NCI-H23 lung
  TGI: > 100 µM
SF-268 CNS
  TGI: > 100 µM
COLO 205 colon
  TGI: > 100 µM
NCI-H226 lung
  TGI: > 100 µM
SK-OV-3 ovarian
  TGI: > 100 µM
SK-MEL-5 melanoma
  TGI: > 100 µM
OVCAR-3 ovarian
  TGI: > 100 µM
HCT-15 colon
  TGI: > 100 µM
SF-539 CNS
  TGI: > 100 µM
LOX IMVI melanoma
  TGI: > 100 µM
